Patent US20140179745A1, “TOPICAL OPHTHALMOLOGICAL PHARMACEUTICAL COMPOSITION CONTAINING REGORAFENIB” (Bayer Healthcare LLC, priority 2012, published 2014)

Test: Thermodynamic solubility of regorafenib monohydrate in different solvents
Type: physicochemical
Conditions: thermodynamic from solid
From the text: Regorafenib monohydrate has a limited solubility profile.

Measured: solubility

CNC(=O)c1cc(Oc2ccc(NC(=O)Nc3ccc(Cl)c(C(F)(F)F)c3)c(F)c2)ccn1 [regorafenib monohydrate, 4-{4-[({[4-chloro-3-(trifluoromethyl)phenyl]amino}carbonyl)amino]-3-fluorophenoxy}-N-methylpyridine-2-carboxamide]
< 100 µg/mL: aqueous with cosolvent or surfactant or cyclodextrin, solvent HPβ-Cyclodextrin/water (10:90) | oil or lipid, solvent Light liquid paraffin | solvent Water
